Laboratory results taken from patent US10189870B2, “Crystalline form of oxazolidinone antibiotics and preparation method, composition and use thereof” (Hangzhou Pushai Pharmaceutical Technology Co., Ltd., priority 2014, dated 2019).
In brackets after ≈: the same amount, converted by molar mass. Like-named read-outs stand apart in the source and are kept apart here.

Legend:
[1] = Solubility in water, filtrate content measured by HPLC; type: physicochemical; settings: for solubility at 10 h: water, 25 °C, thermodynamic from solid
Description: High Performance Liquid Chromatogram (HPLC) analysis data are collected from Agilent 1260 and the chemical workstation is B.04. The corresponding parameters are as follows: chromatographic column Eclipst XDB-C18, 5 μm, 4.6×250 mm, H-005#, column temperature 25° C., flow rate 0.3 ml/min, mobile phase 13% acetonitrile and 87% water (0.0025M ammonium bicarbonate), wavelength 254 nm, sample size 10 μL and operation duration 20 min.
In 100 mL of water was added 20.0 mg of Form I prepared in preparation example 1 or 20 mg of Form II prepared in example 1, and stirred for 10 hours at 25° C., filtered, the content of the filtrate was directly measured by HPLC.

[2] = Stability test under high temperature and bright light, HPLC purity; type: physicochemical; settings: for Change in value of maximum individual impurity content: increase
Description: High Performance Liquid Chromatogram (HPLC) analysis data are collected from Agilent 1260 and the chemical workstation is B.04. The corresponding parameters are as follows: chromatographic column […] XDB-C18, 5 μm, 4.6×250 mm, H-005#, column temperature 25° C., flow rate 0.3 ml/min, mobile phase 13% acetonitrile and 87% water (0.0025M ammonium bicarbonate), wavelength 254 nm, sample size 10 μL and operation duration 20 min. Form I of TR-701FA prepared in preparation example 1 and Form II of TR-701FA of the present invention were compared in the stability test by being stored for 10 days under conditions of high temperature and bright light. The high temperature was 80° C. and the light was 6,000 lx. HPLC purities and maximum individual impurity contents of the compounds were tested before and after the storage, and the results were shown in Table 3.

[3] = Isothermal adsorption curve (hygroscopicity); type: physicochemical; settings: for hygroscopicity (in words): isothermal adsorption curve
Description: The Isothermal Adsorption Curve data are collected by TA Instruments Q5000 TGA. The instrument control software is Thermal Advantage and the analysis software is Universal Analysis. Generally, take 1 to 10 mg of the sample and place it in a platinum pan, and record weight changes of the sample during the course of the relative humidity changing from 0% to 80% then to 0%. Depending on samples, different adsorption and desorption steps may be used.

[4] = aqueous solution or acid solution; cited from earlier work
[5] = cited from earlier work
[6] = Storage stability at 25° C. and 60% RH; type: physicochemical; settings: stored for 6 months at 25° C. and 60% RH
[7] = 0 day vs 10 days at 80° C. and 6,000 lx
[8] = high temperature (80° C.) and lighting (6,000 lx) for 10 days

SMILES	solubility in water (in words) [1]	solubility at 10 h ([1]; stirred 10 hours at 25° C. (room temperature), filtrate by HPLC, read-out: solubility in water)	HPLC purity ([2]; 0 day)	Maximum individual impurity content ([2]; 0 day)	Change in value of maximum individual impurity content [2, 7]	Change in value of HPLC purity ([2]; 0 day vs 10 days at 80° C. and 6,000 lx, positive = decrease)	HPLC purity [2, 8]	Maximum individual impurity content [2, 8]	hygroscopicity (in words) [3]	weight change on isothermal adsorption curve ([3]; relative humidity range of 20% to 80% RH)	stability in solution (in words) [4]	solubility relative to tedizolid (in words) [5]	solubility at 10 h ([1]; at room temperature, read-out: water solubility)	purity and crystalline form after storage [6]
Cn1nnc(-c2ccc(-c3ccc(N4C[C@H](COP(=O)(O)O)OC4=O)cc3F)cn2)n1 [Form I of TR-701FA, (R)-3-(4-(2-(2-methyltetrazol-5-yl)pyridine-5-yl)-3-fluorophenyl)-5-hydroxymethyl oxazolidin-2-onedihydrogenphosphate]	low solubility in water	118 µg/mL (≈ 262 µM)	98.7%	1.3%	1.2%	2.1%	96.6%	2.5%	high hygroscopicity	approximately 1.56%	–	–	–	–
Cn1nnc(-c2ccc(-c3ccc(N4C[C@H](COP(=O)(O)O)OC4=O)cc3F)cn2)n1 [TR-701FA, (R)-3-(4-(2-(2-methyltetrazol-5-yl)pyridine-5-yl)-3-fluorophenyl)-5-hydroxymethyl oxazolidin-2-onedihydrogenphosphate]	–	–	–	–	–	–	–	–	–	–	stable in aqueous solution or acid solution	better solubility than tedizolid	–	–
Cn1nnc(-c2ccc(-c3ccc(N4C[C@H](COP(=O)(O)O)OC4=O)cc3F)cn2)n1 [Form II of TR-701FA, (R)-3-(4-(2-(2-methyltetrazol-5-yl)pyridine-5-yl)-3-fluorophenyl)-5-hydroxymethyl oxazolidin-2-onedihydrogenphosphate]	–	–	98.3%	1.6%	0.1%	–	98.4%	1.7%	lower hygroscopicity than the known Form I	–	–	–	168 µg/mL (≈ 373 µM)	remain unchanged
